Assays:
Lewis lung carcinoma = Lewis lung carcinoma model, lung metastases; assay type: in vivo, mouse
Description: The well-known Lewis lung carcinoma model was used as follows: cells were injected subcutaneously into the flanks of C57 BL/6 mice, which were assigned into control and treated groups containing ten animals per group. On day 8, the tumor was excised. The ketoaldehyde (200 mg/kg body weight) in 20% aqueous ethanol or drug vehicle (aqueous ethanol) was administered intraperitoneally on days 9, 11, 13, 15 and 19. On day 22, the animals were sacrificed and their lungs were removed. The lungs were weighed and the number of metastases determined by counting the nodules established in each lung.

[1] = system: DA-3 mammary adenocarcinoma; settings: over 28 days; from U.S. Ser. No. 08/527,039; cited from earlier work
[2] = system: MCF-7 human breast cancer tumor; experiment: Human xenograft tumor growth, nude mice; assay type: in vivo, mouse; settings: 40 mg/kg body weight
Text: […] […] While the MCF-7 cell line appears to be less susceptible to the ketoaldehyde than the SW480 cell line, it should be noted that the MCF-7-derived tumors grow more aggressively than those derived from SW480, which necessitated using 20-fold fewer MCF-7 cells to obtain an initially slower rate of tumor growth.

IMR32 = settings: from U.S. Ser. No. 08/527,039; cited from earlier work
HCT116 = settings: from U.S. Ser. No. 08/527,039; cited from earlier work
Pilot toxicity study = assay type: in vivo
Description: Significant inhibition of tumor growth has been obtained with doses of only 10–40 mg/kg body weight. Thus, the ketoaldehyde has a therapeutic index (400/(10–40)) of approximately 10 to 40.

[3] = system: NB4 acute promyelocytic leukemia; experiment: Inhibition of proliferation, fluorescence-based assay; assay type: cell-based; settings: Homo sapiens, 10–175 μM, 72 hours, read-out: Relative Inhibition of Proliferation
Description: (§1) The effect of the ketoaldehyde upon the inhibition of cell proliferation in cultured cancer cells was determined using a conventional, fluorescence-based anti-proliferative assay and a flow cytometry method. The extent of apoptosis was determined for some cell lines as well.
(§2) The effect of different concentrations of the ketoaldehyde upon the proliferation of the SW480 colorectal and MCF-7 breast cancer cell lines as a function of time is provided in FIGS. 12 and 13, respectively. The inhibition of proliferation in individual cell lines is summarized in Table 10, which provides a relative ranking of the ketoaldehyde's IC50 for each cell line.

IMR32 neuroblastoma = experiment: as above; assay type: cell-based; settings: Homo sapiens, IMR-32, 10–175 μM, 72 hours, read-out: Relative Inhibition of Proliferation
Description: as §1, §2

[4] = system: K562 chronic myelogenous leukemia; experiment: as above; assay type: cell-based; settings: Homo sapiens, 10–175 μM, 72 hours, read-out: Relative Inhibition of Proliferation
Description: as §1, §2

HT29 colon cancer = experiment: as above; assay type: cell-based; settings: Homo sapiens, HT-29, 10–175 μM, 72 hours, read-out: Relative Inhibition of Proliferation
Description: as §1, §2

HCT116 colon cancer = experiment: as above; assay type: cell-based; settings: Homo sapiens, HCT-116, 10–175 μM, 72 hours, read-out: Relative Inhibition of Proliferation
Description: as §1, §2

LS174T colorectal tumor = experiment: Human xenograft tumor growth, SCID mice; assay type: in vivo, mouse; settings: thrice-weekly dosing 40 mg/kg
[5] = system: SW480 human colorectal tumor; experiment: Human xenograft tumor growth, nude mice; assay type: in vivo, mouse; settings: 40 mg/kg body weight three times per week, FIG. 14
Description: FIG. 14 is a graph illustrating the inhibition of growth by the ketoaldehyde of a tumor derived from human colorectal cancer cells. Balb/c nude mice were inoculated subcutaneously in the flank with 5.0×10^6 cells of the SW-480 human colorectal adenocarcinoma cell line. There were 7 control animals and 7 animals in the treatment group. The administration schedule was 40 mg/kg of ketoaldehyde in 20% ethanol in saline given by intraperitoneal injection 3 times per week (Monday, Wednesday and Friday).
The ketoaldehyde provides a significant degree of tumor growth control for a period of more than 67 days in a nude mouse xenograft model of human colon cancer (human colon cancer cell line, SW480; see FIG. 14).

NB4 = settings: from U.S. Ser. No. 08/527,039; cited from earlier work
K562 = settings: from U.S. Ser. No. 08/527,039; cited from earlier work
[6] = system: MCF-7 breast adenocarcinoma; experiment: Inhibition of proliferation and apoptosis, flow cytometry; assay type: cell-based; settings: Homo sapiens, MCF7, 20–100 μM, 24, 48, 72 and 96 hours, read-out: Relative Inhibition of Proliferation
Description: as §1, §2

[7] = system: D 341 medulloblastoma (brain); experiment: as above; assay type: cell-based; settings: Homo sapiens, D341, 20–100 μM, 24, 48, 72 and 96 hours, read-out: Relative Inhibition of Proliferation
Description: as §1, §2

[8] = system: HCC 1143 breast carcinoma; experiment: as above; assay type: cell-based; settings: Homo sapiens, HCC1143, 20–100 μM, 24, 48, 72 and 96 hours, read-out: Relative Inhibition of Proliferation
Description: as §1, §2

[9] = system: HL-60 acute promyelocytic leukemia; experiment: as above; assay type: cell-based; settings: Homo sapiens, 20–100 μM, 24, 48, 72 and 96 hours, read-out: Relative Inhibition of Proliferation
Description: as §1, §2

[10] = system: NCI-H23 non-small cell lung cancer; experiment: as above; assay type: cell-based; settings: Homo sapiens, 20–100 μM, 24, 48, 72 and 96 hours, read-out: Relative Inhibition of Proliferation
Description: as §1, §2

[11] = system: SW480 colorectal adenocarcinoma; experiment: as above; assay type: cell-based; settings: Homo sapiens, 20–100 μM, 24, 48, 72 and 96 hours, read-out: Relative Inhibition of Proliferation
Description: as §1, §2

[12] = system: SK-Mel malignant melanoma epidermal; experiment: as above; assay type: cell-based; settings: Homo sapiens, 20–100 μM, 24, 48, 72 and 96 hours, read-out: Relative Inhibition of Proliferation
Description: as §1, §2

[13] = system: LNCaP-FGC-10 prostate tumors; experiment: Human xenograft tumor growth, nude mice; assay type: in vivo, mouse
Text: The ketoaldehyde is also active against human LNCaP-FGC-10 prostate tumors grown in nude mice.

SMILES: CC(=O)C=CC=C(C)C=O [the ketoaldehyde, 2-methyl-6-oxo-2,4-heptadienal]
- Mean Lung Weight ± SEM (Lewis lung carcinoma; 200 mg/kg i.p. days 9, 11, 13, 15, 19, day 22, control 0.287 ± 0.013 g, 2-tail t-test 0.004): 0.229 ± 0.012 g
- Mean No. Metastases ± SEM (Lewis lung carcinoma; 200 mg/kg i.p. days 9, 11, 13, 15, 19, day 22, control 28.0 ± 2.4, 2-tail t-test 0.01): 14.4 ± 4.1
- Difference in Mean Lung Weight, control minus treated (Lewis lung carcinoma; 200 mg/kg i.p., day 22): 0.058 g
- Difference in Mean No. Metastases, control minus treated (Lewis lung carcinoma; 200 mg/kg i.p., day 22): 13.6
- reduction in the number of lung metastases (Lewis lung carcinoma; treated animals versus control): ~50%
- tumor volume [1]: less than 50 % of the control
- tumor response ([2]; daily dosing): improved response
- tumor response ([2]; thrice-weekly dosing): responded
- cytostatic effect (IMR32): cytostatic effect
- cytostatic effect (HCT116): cytostatic effect
- LD100 (Pilot toxicity study; mice, pilot toxicity study): approximately 400 mg/kg body weight
- therapeutic index (400/(10–40)) (Pilot toxicity study; mouse, in vivo): 10–40
- toxicity at therapeutically functional doses (Pilot toxicity study; mouse, in vivo): No toxicity
- IC50 [3]: ~100 µM
- IC50 (IMR32 neuroblastoma): ~50 µM
- IC50 [4]: > 100 µM
- IC50 (HT29 colon cancer): ~100 µM
- IC50 (HCT116 colon cancer): ~50 µM
- tumor response (LS174T colorectal tumor): responded well
- period of significant tumor growth control [5]: more than 67 days
- cytostatic effect (NB4): cytostatic effect
- cytostatic effect (K562): cytostatic effect
- IC50 [6]: ~50 µM
- IC50 [7]: ~50 µM
- IC50 [8]: > 100 µM
- IC50 [9]: ~50 µM
- IC50 [10]: ~50 µM
- IC50 [11]: ~50 µM
- IC50 [12]: ~100 µM
- activity against tumors [13]: active
